Test results: patent publication US11026943B2, “Aminoquinoline derivatives and uses thereof” (UNIVERSITY OF DELHI, priority 2012, dated 2021)

Experiments:
[1] = target: T1, Nurr1 LBD with SRC-1/SRC-3 (Mus musculus, UniProt Q06219); test: Nurr1 LBD transactivation with VP16-SRC1/VP16-SRC3 overexpression; type: cell-based; details: 30 μM AQ or 100 μM CQ for 16 hours
T1 construct: The Nurr1 LBD fragment from amino acid position 328 to amino acid position 598 was PCR-amplified; expressed in transfected cells; host or cells: SK-N-BE(2)C human neuroblastoma cells

[2] = system: neural precursor cells from E14 rat cortices; test: In vitro differentiation of Nurr1-transduced neural precursor cells into TH+ DA neurons; type: cell-based
Method: Error bars represent standard deviations.
Neural precursor cells (NPCs) from dissection of rat embryos days 14 cortices (E14) were proliferated in N2 medium supplemented with 20 ng/mL basic fibroblast growth factor (bFGF; R&D Systems, Minneapolis, Minn., USA). Following 3-4 days of bFGF-expansion, NPCs were dissociated in Ca^2+/Mg^2+-free Hank's balanced salt solution (CMF-HBSS, Invitrogen, Carlsbad, Calif.) and re-plated onto coverslips (12 mm diameter; Carolina Biological Supply Company, Burlington, N.C.) at 32,000 cells/coverslip pre-coated with poly-L-ornithine (PLO; […], Sigma, St Louis, Mo.) at 37° C. overnight followed by fibronectin (FN; […], Sigma) overnight. Prior to drug treatment, NPCs were transduced with Nurr1-expressing retrovirus of MOI 5 in the presence of polybrene (1 μg/ml, Sigma), cultured overnight in N2, and then differentiated. Getting started chemical treatment (every day for 2 hours), bFGF was not added anymore^3.
Cells were fixed in 4% paraformaldehyde (PFA) for 20 min, washed and then incubated with blocking buffer [PBS, 10% goat serum (Invitrogen), 0.3% Triton X-100 (Sigma)] for 1 hour. […] Following washes with PBS, appropriate fluorescence-tagged secondary antibodies (Jackson Immunoresearch Laboratories, West Grove, Pa.) were used for visualization. […]

[3] = system: PC12 cells; test: 6-OHDA toxicity in PC12 cells (MTT reduction assay); type: cell-based, rat
Method: Cell viabilities were determined by the conventional MTT reduction assay. After incubation for indicated times, cells were treated with the MTT solution (final concentration, 1 mg/ml, Sigma) for 1 h. Formazan grains formed in intact cells were solubilized with MTT Solubilization. Solution containing 10% Triton X-100 plus 0.1 N HCl in anhydrous isopropanol for 24 h and then absorbance at 570 nm was measured with a microplate reader (Molecular Devices, Menlo Park, Calif.).

[4] = system: 6-OHDA-lesioned rats; test: 6-OHDA-lesioned rat model of PD (amphetamine rotation, TH+ and Iba-1 counts); type: in vivo
Method: Cells were fixed in 4% paraformaldehyde (PFA) for 20 min, washed and then incubated with blocking buffer [PBS, 10% goat serum (Invitrogen), 0.3% Triton X-100 (Sigma)] for 1 hour. Cells were then incubated overnight at 4° C. with primary antibodies with the primary antibody in PBS containing 1% normal goat serum and 0.1% Triton X-100. A rabbit polyclonal anti-TH antibody (1:500; Pel-Freez, Rogers, Ark.) was used as a primary antibody. Following washes with PBS, appropriate fluorescence-tagged secondary antibodies (Jackson Immunoresearch Laboratories, West Grove, Pa.) were used for visualization. Stained samples were mounted in […] with DAPI mounting solution (Vector Laboratories INC., Burlingame, Calif.) and photographed using epifluorescence microscope (Leica). […] The tissues were washed three times in PBS and incubated for 2 h with the secondary fluorescence-conjugated goat anti-mouse and rabbit antibody (DAKO, Denmark, Cy3, FITC, both dilutions at 1:1,000) and tissues were washed and mounted in Vectorshield. […] Tissues were visualized using fluorescence microscopy. […] The protection percentage of total TH^+ cells in the lesioned hemisphere of each rat brain was calculated by dividing total TH^+ cells in the intact hemisphere of each rat brain and multiplying […]. […]

T1 sequence (Q06219 328-598): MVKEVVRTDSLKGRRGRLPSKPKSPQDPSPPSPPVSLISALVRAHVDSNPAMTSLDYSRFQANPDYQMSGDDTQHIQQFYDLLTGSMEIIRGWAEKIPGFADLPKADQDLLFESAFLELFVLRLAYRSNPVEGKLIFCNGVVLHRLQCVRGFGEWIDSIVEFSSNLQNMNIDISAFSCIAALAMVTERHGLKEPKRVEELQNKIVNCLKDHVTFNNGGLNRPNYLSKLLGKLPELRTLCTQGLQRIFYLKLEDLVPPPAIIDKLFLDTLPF

CCN(CC)Cc1cc(Nc2ccnc3cc(Cl)ccc23)ccc1O [AQ, amodiaquine]
Nurr1 transcriptional function with SRC-1/SRC-3 overexpression [1]: further enhanced | number of TH+ neurons generated from neural stem cells [2]: enhanced | mRNA expression levels of TH, DAT, VMAT and AADC genes ([2]; in vitro differentiation for 9 d): enhanced | neuroprotective effect in PC12 cells [3]: neuroprotective effect | 6-OHDA-induced (amphetamine) rotation behavior ([4]; 4 and 6 weeks post lesion, AQ 20 mg/kg i.p. twice per day, 2 weeks): significantly ameliorated | numbers of Iba-1+ microglia in ipsilateral SN and STR ([4]; after AQ treatment): decreased to the levels of the contralateral sides
